Experimental findings from ChEMBL document CHEMBL1201862, “PubChem BioAssay data set” (2004) are described below.

SMILES strings stand for the structures.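 Briefly, cells in 96-well plates were exposed to five compound concentrations for 48 h, and endpoints were estimated by linear interpolation. Here, GI50 denotes the concentration required for 50% inhibition of growth.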 Active and inactive are the calls of the source. Rule as the data show it: active = GI50 up to about 1.1 µM and inactive = higher. Bounds are passed on as bounds.

Among the test systems are OVCAR-3; SF-295; COLO 205; OVCAR-5; EKVX; Hs-578T; NCI-H522; PC-3; SNB-19; U-251; MCF7; MDA-N; KM12; SNB-75; CCRF-CEM; SF-268; NCI/ADR-RES; MDA-MB-435.
Experiment in all cases: DTP human tumour cell line panel, 48 h

On to `CCCCCC1=C/C(=C\c2[nH]c(-c3ccc[nH]3)cc2OC)N=C1C`, for which the GI50 was < 0.01 µM (active) in the assay on OVCAR-3; < 0.01 µM (active) in the assay on SF-295; < 0.01 µM (active) with COLO 205; 0.0179 µM (active) in the assay with OVCAR-5; 0.0145 µM (active) in the assay with EKVX; < 0.01 µM (active) with Hs-578T. Further, the GI50 is < 0.01 µM (active) with NCI-H522; < 0.01 µM (active) with PC-3; 0.0562 µM (active) in the assay on SNB-19; 0.0122 µM (active) in the assay with U-251; 0.0136 µM (active) in the assay with MCF7; < 0.01 µM (active) in the assay on MDA-N. Also, the 50% growth inhibitory concentration (GI50) with KM12, in the assay on SNB-75, with CCRF-CEM, with SF-268, in the assay on NCI/ADR-RES and in the assay on MDA-MB-435 was < 0.01 µM (active) in each case.

As to `CCOP(=O)(OCC)/C(C#N)=C/c1ccc(-c2cc(C(F)(F)F)cc(C(F)(F)F)c2)o1`, the GI50 is 8.02 µM (inactive) in the assay with OVCAR-3; 1.82 µM (inactive) in the assay with SF-295; 12.4 µM (inactive) in the assay on COLO 205; 13.3 µM (inactive) in the assay with OVCAR-5; 20.7 µM (inactive) in the assay with EKVX; 25.1 µM (inactive) in the assay with Hs-578T. Also, the GI50 is 10.4 µM (inactive) in the assay with NCI-H522; 11.7 µM (inactive) in the assay on PC-3; 16 µM (inactive) with SNB-19; 12 µM (inactive) with U-251; 6.3 µM (inactive) with MCF7; 13.3 µM (inactive) in the assay with MDA-N. Also, the GI50 in the assay with SNB-75 was 10.5 µM (inactive); in the assay on CCRF-CEM, 9.75 µM (inactive); with SF-268, 15.2 µM (inactive); with NCI/ADR-RES it was 9.82 µM (inactive); with MDA-MB-435 it was 14 µM (inactive).

For `CC(C)(C)OC(=O)NC1CCCC1C(=O)C1=CCCC1` (centres undefined), the GI50 was > 100 µM (inactive) with OVCAR-3; > 100 µM (inactive) in the assay on COLO 205; > 100 µM (inactive) in the assay with OVCAR-5; 44 µM (inactive) in the assay on Hs-578T; > 100 µM (inactive) in the assay with PC-3; > 100 µM (inactive) in the assay with SNB-19. Further, the GI50 with U-251 was > 100 µM (inactive); in the assay with MDA-N, 53 µM (inactive); in the assay with KM12 it was 92 µM (inactive); in the assay with SNB-75, 72.9 µM (inactive); with CCRF-CEM it was 74.6 µM (inactive); with SF-268, > 100 µM (inactive). Further, the GI50 was > 100 µM (inactive) in the assay with NCI/ADR-RES and 90.6 µM (inactive) in the assay on MDA-MB-435.

In the case of `COc1cc(OC)c(C/C=C/c2ccccc2)cc1O`, the GI50 is 14.7 µM (inactive) in the assay on OVCAR-3; 22 µM (inactive) with COLO 205; 26.6 µM (inactive) with OVCAR-5; 17.2 µM (inactive) with EKVX; 16.8 µM (inactive) in the assay with Hs-578T; 12.6 µM (inactive) with NCI-H522. Also, the GI50 with PC-3 is 17.1 µM (inactive); with SNB-19 it was 15.9 µM (inactive); with U-251 it was 16.7 µM (inactive); with MDA-N, 18.1 µM (inactive); in the assay on KM12, 17.7 µM (inactive); in the assay on SNB-75, 14.6 µM (inactive). Also, the GI50 in the assay with CCRF-CEM is 22.1 µM (inactive); in the assay with SF-268, 16.7 µM (inactive); in the assay on NCI/ADR-RES it was 14.5 µM (inactive); in the assay with MDA-MB-435 it was 17 µM (inactive).

In the case of `COc1ccc(-n2nnc3c(C#N)c(C)c(-c4ccccc4)n3c2=O)cc1`, the GI50 with OVCAR-3 was 1.16 µM (inactive); with SF-295, 2.24 µM (inactive); in the assay with COLO 205 it was 2.93 µM (inactive); in the assay with OVCAR-5, 3.33 µM (inactive); in the assay with EKVX, 2.84 µM (inactive); with Hs-578T, 4.58 µM (inactive). Moreover, the GI50 in the assay on PC-3 was 1.82 µM (inactive); with SNB-19 it was 3.35 µM (inactive); in the assay on U-251, 11.3 µM (inactive); with MCF7 it was 3.8 µM (inactive); in the assay with MDA-N, 0.413 µM (active); in the assay with KM12, 2.71 µM (inactive). The GI50 with SNB-75 was 3.2 µM (inactive); with CCRF-CEM, 0.38 µM (active); in the assay with SF-268, 5.19 µM (inactive); with NCI/ADR-RES it was 2.84 µM (inactive); in the assay on MDA-MB-435, 0.543 µM (active).

Regarding `Clc1ccc(COC(Cn2ccnc2)c2ccc(Cl)cc2Cl)c(Cl)c1` (centres undefined) [MICONAZOLE], the GI50 is 12.2 µM (inactive) in the assay on OVCAR-3; 11.2 µM (inactive) with SF-295; 17.7 µM (inactive) with OVCAR-5; 14.3 µM (inactive) in the assay with EKVX; 13.4 µM (inactive) with Hs-578T; 10 µM (inactive) in the assay with NCI-H522. The GI50 in the assay on PC-3 was 7.08 µM (inactive); with SNB-19, 13.4 µM (inactive); with U-251 it was 11.7 µM (inactive); in the assay with MCF7 it was 10.9 µM (inactive); in the assay on MDA-N it was 4.8 µM (inactive); with KM12, 11.8 µM (inactive). The GI50 in the assay with CCRF-CEM is 8.09 µM (inactive); with SF-268, 11.2 µM (inactive); in the assay with NCI/ADR-RES, 6.1 µM (inactive); with MDA-MB-435 it was 3.23 µM (inactive).

Turning to `O=C(NCc1cccnc1)NCc1cccnc1`, the GI50 in the assay on OVCAR-3, in the assay on SF-295, with COLO 205, with OVCAR-5, with EKVX and in the assay with Hs-578T was > 100 µM (inactive) each time. Further, the GI50 in the assay on NCI-H522, with PC-3, in the assay on SNB-19, in the assay with U-251, with MCF7 and with MDA-N was > 100 µM (inactive) throughout. The GI50 with KM12, in the assay with SNB-75, in the assay on SF-268, in the assay on NCI/ADR-RES and in the assay on MDA-MB-435 was > 100 µM (inactive) throughout.

On to `Nc1c(-c2nc3ccccc3s2)c2ccc([N+](=O)[O-])cc2c(=O)n1-c1cccc(C(=O)O)c1`, for which the GI50 with COLO 205 was 63.5 µM (inactive); with Hs-578T it was 27.5 µM (inactive); in the assay on NCI-H522 it was 37.8 µM (inactive); in the assay on PC-3, 29.9 µM (inactive); in the assay on SNB-19, 19.8 µM (inactive); in the assay with U-251 it was 23.4 µM (inactive). The GI50 in the assay with MDA-N was 45.1 µM (inactive); in the assay with KM12 it was 40.6 µM (inactive); in the assay on SNB-75, 30.8 µM (inactive); with CCRF-CEM, 22.8 µM (inactive); with SF-268, 35.5 µM (inactive); in the assay with NCI/ADR-RES, 33.1 µM (inactive). Besides, the GI50 with MDA-MB-435 was 35.6 µM (inactive).

Consider `CCOP(=O)(OCC)C(Nc1ccc(Br)cc1)c1cccc([N+](=O)[O-])c1` (centres undefined), for which the GI50 in the assay with OVCAR-3 was 16.2 µM (inactive); with SF-295 it was 12.9 µM (inactive); in the assay with COLO 205 it was 13.2 µM (inactive); with OVCAR-5, 24.1 µM (inactive); with EKVX it was 2.99 µM (inactive); in the assay with Hs-578T, 21.3 µM (inactive). For the same compound, the GI50 in the assay with NCI-H522 is 13.6 µM (inactive); with SNB-19, 24.9 µM (inactive); with U-251, 18.2 µM (inactive); in the assay with MDA-N, 19.2 µM (inactive); in the assay on KM12 it was 12.6 µM (inactive); with SNB-75, 29.2 µM (inactive). Further, the GI50 was 17.8 µM (inactive) in the assay on CCRF-CEM, 17.7 µM (inactive) with SF-268, 13.5 µM (inactive) in the assay on NCI/ADR-RES and 16.1 µM (inactive) in the assay with MDA-MB-435.

As to `Nc1nc(O)c(N)c(NCCOCP(=O)(O)O)n1`, the GI50 in the assay with OVCAR-3, in the assay with SF-295, in the assay with COLO 205, with OVCAR-5, in the assay with EKVX and with Hs-578T was > 100 µM (inactive) throughout. For the same compound, the GI50 in the assay on PC-3 is > 100 µM (inactive); with SNB-19 it was > 100 µM (inactive); in the assay on U-251, > 100 µM (inactive); in the assay on MCF7, > 100 µM (inactive); in the assay on MDA-N it was > 100 µM (inactive); in the assay on SNB-75, > 65.6 µM (inactive). The GI50 in the assay with CCRF-CEM, in the assay on SF-268, with NCI/ADR-RES and in the assay with MDA-MB-435 was > 100 µM (inactive) each time.

In the case of `COC(=O)c1sc2c(=O)c(C(=O)OC)c(C(=O)OC)sc2c(=O)c1C(=O)OC`, the GI50 with OVCAR-3 was > 100 µM (inactive); in the assay with SF-295, > 100 µM (inactive); in the assay on COLO 205, > 100 µM (inactive); in the assay on OVCAR-5, > 100 µM (inactive); in the assay on EKVX, > 100 µM (inactive); in the assay on Hs-578T, > 64.1 µM (inactive). Further, the GI50 is 21.5 µM (inactive) in the assay with NCI-H522; > 100 µM (inactive) in the assay on PC-3; > 100 µM (inactive) in the assay on SNB-19; > 80.9 µM (inactive) in the assay with U-251; > 100 µM (inactive) in the assay with MCF7; > 100 µM (inactive) with MDA-N. In addition, the GI50 was > 100 µM (inactive) with KM12; > 100 µM (inactive) with SNB-75; > 62.7 µM (inactive) with SF-268; > 100 µM (inactive) in the assay with NCI/ADR-RES; > 100 µM (inactive) in the assay on MDA-MB-435.

Turning to `Nc1ncn2c(n1)nc1ccccc12`, the GI50 in the assay with SF-295 is > 100 µM (inactive); in the assay with COLO 205, > 100 µM (inactive); in the assay on OVCAR-5, > 100 µM (inactive); in the assay with EKVX, 54.8 µM (inactive); in the assay with Hs-578T, > 100 µM (inactive); in the assay with NCI-H522, > 100 µM (inactive). In addition, the GI50 with PC-3, with SNB-19, in the assay with U-251, with MCF7, with MDA-N and in the assay with KM12 was > 100 µM (inactive) in each case. In addition, the GI50 is 3.51 µM (inactive) with SNB-75; > 100 µM (inactive) in the assay on CCRF-CEM; > 100 µM (inactive) with SF-268; > 100 µM (inactive) with NCI/ADR-RES; > 100 µM (inactive) in the assay on MDA-MB-435.

One may read the GI50 as the concentration giving 50% growth inhibition.
